In brackets after ≈: the same amount, converted by molar mass.
Key:
[1] = tested on: Mycobacterium tuberculosis; assay: Antimicrobial activity against Mycobacterium tuberculosis H37Rv ATCC 27294 by microplate Almar blue assay; assay type: functional; settings: Mycobacterium tuberculosis, H37Rv ATCC 27294; read-out: MIC
Vero = assay: Cytotoxicity against african green monkey Vero cells at after 72 hrs by MTT assay; assay type: cell-based, Chlorocebus sabaeus; settings: Chlorocebus sabaeus, Vero, 72 h; read-out: IC50
[2] = Selective index, the ratio of IC50 in the african green monkey Vero cells to the MIC to Mycobacterium tuberculosis H37Rv ATCC 27294; assay type: functional
[3] = tested on: Mycobacterium tuberculosis; assay: Antimicrobial activity against Mycobacterium tuberculosis H37Rv ATCC 27294 at 6.25 ug/mL by broth microdilution assay; assay type: functional

Structure (SMILES)	MIC [1] [µg/mL]	IC50 (Vero) [µg/mL]	Selectivity Index [2]	inhibition at 6.25 µg/mL [3] [%]
c1ccc(C[C@H]2CNCCN2CC2CCCN2C[C@H](Cc2ccccc2)N2CCN(CCC3CCCCC3)[C@@H](Cc3ccccc3)C2)cc1 (stereo partly specified)	3.9 (≈ 5.89 µM)	0.62 (≈ 0.937 µM)	0.16	99
c1ccc(C[C@H]2CNCCN2CC2CCCN2C[C@H](Cc2ccccc2)N2CCN(CCCC3CCCC3)[C@@H](Cc3ccccc3)C2)cc1 (stereo partly specified)	3.9 (≈ 5.89 µM)	0.42 (≈ 0.634 µM)	0.11	100
COc1cccc(CCN2CCN([C@@H](Cc3ccccc3)CN3CCCC3CN3CCNC[C@@H]3Cc3ccccc3)C[C@@H]2Cc2ccccc2)c1 (stereo partly specified)	3.9 (≈ 5.69 µM)	0.32 (≈ 0.466 µM)	0.08	99
COc1ccc(CCN2CCN([C@@H](Cc3ccccc3)CN3CCCC3CN3CCNC[C@@H]3Cc3ccccc3)C[C@@H]2Cc2ccccc2)cc1 (stereo partly specified)	3.9 (≈ 5.69 µM)	0.33 (≈ 0.481 µM)	0.08	99

From ChEMBL document CHEMBL1153803, “Parallel synthesis of chiral pentaamines and pyrrolidine containing bis-heterocyclic libraries. Multiple scaffolds with multiple building blocks: a double diversity for the identification of new antitubercular compounds” (Bioorg Med Chem Lett, 2009)
